# In PubChem BioAssay AID2061108 (Research group of Professor Matthew Todd, School of …, 2025):
# Active and inactive are the calls of the source. No rule for the calls is given here.
# Key:
# Experiment in all cases: microbial growth inhibition plus red cell haemolysis – Idler compounds, first plate, PMBN-permeabilized strains, profiling panel (AID 2061108)
# Parameters in all cases: haemolysis: dose or concentration left out as unconfirmed
# [1] = test system: A. baumannii ATCC 17978 + PMBN growth inhibition, 100 uM; settings: A. baumannii plus PMBN growth inhibition, 100 µM; stronger effect = higher value
# [2] = test system: A. baumannii ATCC 17978 growth inhibition, 100 uM; settings: S. aureus ATCC 9144 growth inhibition; measured here: A. baumannii ATCC 17978; at 100 µM; stronger effect = higher value
# [3] = test system: C. albicans NCPF 3281 growth inhibition, 100 uM; settings: S. aureus ATCC 9144 growth inhibition; measured here: C. albicans NCPF 3281; at 100 µM; stronger effect = higher value
# [4] = test system: E. coli NCTC 12923 + PMBN growth inhibition, 100 uM; settings: S. aureus ATCC 9144 growth inhibition; measured here: E. coli plus PMBN; at 100 µM; stronger effect = higher value
# [5] = test system: E. coli NCTC 12923 growth inhibition, 100 uM; settings: E. coli NCTC 12923 growth inhibition, 100 µM; stronger effect = higher value
# [6] = test system: M. abscessus growth inhibition, 10 uM; settings: S. aureus ATCC 9144 growth inhibition; measured here: M. abscessus; at 10 µM
# [7] = test system: M. avium growth inhibition, 10 uM; settings: M. avium growth inhibition, 10 µM
# [8] = test system: S. aureus ATCC 9144 growth inhibition, 100 uM; settings: S. aureus ATCC 9144 growth inhibition; at 100 µM; stronger effect = higher value
# [9] = test system: red blood cell haemolysis; settings: stronger effect = higher value; dose or concentration not given here
Compound,inhibition [1] [%],inhibition [2] [%],inhibition [3] [%],inhibition [4] [%],inhibition [5] [%],inhibition [6] [%],inhibition [7] [%],inhibition [8],haemolysis [9] [%]
O=c1[nH]c(=O)c2cc(S(=O)(=O)Nc3cc(F)c(NCCN4CCOCC4)c(F)c3)ccc2[nH]1,12,-1.9,-21.1,0.988,-4.32,-0.977,-0.106,17.7% (inactive),-0.0292
Cc1ccc(CN2C(=O)NC3(CCN(C(=O)C(C)Oc4ccccc4)CC3)C2=O)cc1 (stereo not given),22.5,-7.26,-57.6,22.5,-2.03,-1.03,-0.615,8.83% (inactive),-0.00857
Cn1nc(C(C)(C)C)cc1NC(=O)Nc1ccc(Cl)cc1,83,-12,-75.2,99.4,12.6,-0.347,0.442,-18.4%,0.904
O=S(=O)(F)c1ncc(Cl)cc1Br,5.94,0.595,-41.4,-23.7,-27.7,-0.925,0.219,-14.2% (inactive),0.564
C=CC(=O)N1CCCc2c(C(=O)O)cccc21,18.6,-1.2,-51.3,-5.12,-5.27,-0.114,0.285,17% (inactive),0.129
